Structures can show the parent of a compound that is named as a salt. Bounds are passed on as bounds.

One series addresses T1, glycine site of the NMDA receptor (Rattus norvegicus, UniProt P35439).
T1 construct: from tissue; host or cells: rat brain membranes
Kind of series: Displacement of [3H]-L-689,560 from rat brain membranes (NMDA glycine site binding). The conditions noted are these: [3H]-L-689,560 method, tris-acetate buffer pH 7.4, 90 minutes, read-out: IC50 (nM), binding affinity for the glycine site of the NMDA receptor. The method, then:
J. Pharm., 104, 74 (1991).
The binding affinities of a selection of the compounds of the Examples for the glycine site of the NMDA receptor were measured using the [^3H]-L-689,560 method described on page 20 of the description.
Background: Displacement assays read how much labelled ligand stays bound in the presence of the test substance.
By IC50 is commonly meant the concentration that gives 50% inhibition. Consider `Cn1ncnc1-c1c(Cl)c(Cl)cc2[nH]c(=O)c(=O)[nH]c12` [Example 20], for which the IC50 is 19 nM. On the same count and under the same terms, under `Cc1nnc(-c2ccccc2)n1-c1c(Cl)c(Cl)cc2[nH]c(=O)c(=O)[nH]c12` [Example 73] stands 4 nM.

Tested on in another series: not given
Assay: not given
Conditions: not given
As a reminder, the melting point is the temperature of the solid-liquid transition. With `Cc1nnc(-c2ccccc2)n1-c1c(Cl)c(Cl)cc2[nH]c(=O)c(=O)[nH]c12` (as salt: HCl) (hydrate or solvate) [Example 73], the melting point lay within 274 to 276 °C. On the same count and under the same terms, under `O=C(O)Cn1nnnc1-c1c(Cl)c(Cl)cc2[nH]c(=O)c(=O)[nH]c12` (hydrate or solvate) [Example 8, 6,7-dichloro-5-(1-carboxymethyltetrazol-5-yl)-2,3(1H,4H)-quinoxalinedione] stands 286 to 287 °C; under `Cn1ncnc1-c1c(Cl)c(Cl)cc2[nH]c(=O)c(=O)[nH]c12` (hydrate or solvate) [Example 20], > 300 °C. Still for that read-out and setting: the result for `O=c1[nH]c2cc(Cl)c(Cl)c(-c3ccncc3)c2[nH]c1=O` [Example 1, 6,7-Dichloro-5-(4-pyridyl)-2,3(1H,4H)-quinoxalinedione] reads > 300 °C; that for `COC(=O)Cn1nnnc1-c1c(Cl)c(Cl)cc2[nH]c(=O)c(=O)[nH]c12` [Example 108, 6,7-Dichloro-5-(1-methoxycarbonylmethyltetrazol-5-yl)-2,3(1H,4H)-quinoxalinedione], 281 to 283 °C. For `COCc1nnc(-c2cccnc2)n1-c1c(Cl)c(C)cc2[nH]c(=O)c(=O)[nH]c12` [Example 109, 6-Chloro-7-methyl-5-[5-methoxymethyl-3-(3-pyridyl)-4H-1,2,4-triazol-4-yl]-2,3(1H,4H)-quinoxalinedione], the melting point lay in the range of 229 to 231 °C. For `COCc1nnc(-c2cccnc2)n1-c1c(C)c(Cl)cc2[nH]c(=O)c(=O)[nH]c12` [Example 110, 7-Chloro-6-methyl-5-[5-methoxymethyl-3-(3-pyridyl)-4H-1,2,4-triazol-4-yl]-2,3(1H,4H)-quinoxalinedione], the melting point is > 300 °C.

The values above are taken from patent publication US6376490B1, “Quinoxalinediones” (Pfizer Inc, priority 1997, dated 2002).
